From patent publication US20230172885A1, “THIOL-CONTAINING COMPOUNDS FOR USE IN TREATING CORONAVIRUS” (priority 2020, published 2023)
“Also recorded” adds a separate entry of the source. Read-outs that look alike come from different tables or passages of the source.

How the values were obtained:
[1] = cited from earlier work
[2] = tested on: SARS-2-S pseudovirus (rVSV-ΔG luciferase); type: cell-based; conditions: pseudovirus pre-incubated with 1.56-100 mM drug for 2 hours, 66-fold dilution
[3] = target: T1, RBD^original (SARS-CoV-2 receptor binding domain) binding to ACE2 (Severe acute respiratory syndrome coronavirus 2, UniProt P0DTC2); conditions: for inhibition of binding of RBD^original to ACE2: RBD exposed to drug for 60 minutes, 0 to 20 mM; for binding of RBD^original to ACE2 at one and two hours post exposure and wash: drug at 5 mM for 1 hour, three washes
T1 construct: ACRO Biosystems); purchased ACRO Biosystems

[4] = tested on: SARS-CoV-2, isolate USA-WA1/2020; type: cell-based
[5] = tested on: SARS CoV2 (isolate USA-WA1/2020); design: species or system Syrian hamsters (Mesocricetus auratus); conditions: hamster, in vivo
[6] = type: physicochemical; conditions: 11 mg/mL in 20 mM sodium citrate, pH 4.5, 38.5 mM NaCl; Aerogen Solo vibrating mesh nebulizer
[7] = tested on: VSV pseudotype bearing the SARS-2-S protein (VSV-S); type: cell-based, SARS-CoV-2
[8] = target: T2, SARS-CoV-2 spike protein (SARS-2-S) binding to ACE2 (Severe acute respiratory syndrome coronavirus 2, UniProt P0DTC2)
T2 construct: Recombinantly expressed RBD of SARS-2-S was first immobilized to a surface

OCC(S)CS (stereo not shown) [2,3-Dimercaprol]
pKa (thiol group) ([1]; dithiol drugs, second thiol): 10.6

NCCCNCCSP(=O)(O)O [Amifostine]
pseudovirus cell entry, pseudovirus pre-treatment [2]: did not inhibit viral cell entry

CC(C)(S)C(=O)N[C@@H](CS)C(=O)O [Bucillamine]
pKa (thiol group) [1]: 8.4
pKa (thiol group) ([1]; dithiol drugs, second thiol): 10.2

N[C@@H](CSCC(=O)O)C(=O)O [Carbocysteine]
pseudovirus cell entry, pseudovirus pre-treatment [2]: did not inhibit viral cell entry

NCCS [Cysteamine]
inhibition of binding of RBD^original to ACE2 [3]: decreased binding; also recorded: strong inhibitory effects
binding of RBD^original to ACE2 at one and two hours post exposure and wash [3]: binding inhibition was retained for two hours
cytopathic effects (CPE) in virus-infected cells, virus exposed to drug prior to infection [4]: inhibit live virus infection; also recorded: significantly inhibited
SARS-CoV2 viral titers (viral RNA, RT-qPCR) in lungs [5]: did not decrease; also recorded: does not decrease
interleukin-6 levels in lung lavage [5]: lower than control
lung weights normalized to terminal body weights [5]: lower than in control groups
lymphocytes in BAL fluid [5]: decreases
neutrophils in BAL fluid [5]: decreases
severity of SARS-CoV2 lung inflammation [5]: did decrease; also recorded: decreased; also recorded: has anti-inflammatory effects
total leukocyte counts in the bronchoalveolar lavage (BAL) fluid [5]: lower than control
pKa (thiol group) [1]: 8.2
potency among thiol drugs in the in vitro assays (SARS-CoV-2): most potent thiol drug
pseudovirus cell entry, pseudovirus pre-treatment [2]: decrease the entry efficiency

O=C(O)C(S)C(S)C(=O)O (stereo not shown) [Dimercaptosuccinic acid]
pKa (thiol group) [1]: 8.9
pKa (thiol group) ([1]; dithiol drugs, second thiol): 10.8

N[C@@H](CCC(=O)N[C@@H](CS)C(=O)NCC(=O)O)C(=O)O [Glutathione]
pKa (thiol group) [1]: 9.2

O=S(=O)([O-])CCS.[Na+] [MESNA, 2-mercaptoethane sulfonate, sodium salt]
inhibition of binding of RBD^original to ACE2 [3]: strong inhibitory effects
binding of RBD^original to ACE2 at one and two hours post exposure and wash [3]: binding inhibition was retained for two hours
antiviral efficacy in vitro compared with NAC (SARS-CoV-2): superior antiviral efficacy in vitro

O[C@@H]1[C@@H](O)[C@@H](O[C@H]2O[C@H](CS)[C@@H](O)[C@H](O)[C@H]2O)O[C@H](CS)[C@H]1O [MUC-31, 6,6′-dithiotrehalose]
average mass median aerodynamic diameter (MMAD) of the exposure atmosphere [6]: 2.60 µm
inhibition of binding of RBD^original to ACE2 [3]: decreased binding; also recorded: strong inhibitory effects
binding of RBD^original to ACE2 at one and two hours post exposure and wash [3]: binding inhibition was retained for two hours
effectiveness for inhibiting viral entry compared with NAC [7]: more effective than NAC
inhibition of VSV-S cellular entry [7]: inhibited VSV-S cellular entry; also recorded: inhibited from entering
inhibition of VSV-S entry, all three concentrations [7]: potent inhibition
cytopathic effects (CPE) in virus-infected cells, virus exposed to drug prior to infection [4]: inhibit live virus infection; also recorded: significantly inhibited
SARS-CoV2 viral titers (viral RNA, RT-qPCR) in lungs ([5]; 0.5 mg/kg): decreases; also recorded: significantly lower
interleukin-6 levels in lung lavage ([5]; 0.5 mg/kg): lower than control
lung weights normalized to terminal body weights ([5]; 0.5 mg/kg): lower than in control groups
macrophages in BAL fluid ([5]; 0.5 mg/kg): decreases
severity of SARS-CoV2 lung inflammation ([5]; 0.5 mg/kg): decreased; also recorded: limit SARS-COV-2-associated lung inflammation
total leukocyte counts in the bronchoalveolar lavage (BAL) fluid ([5]; 0.5 mg/kg): lower than control
binding inhibition after drug is washed out of the reaction mixture [8]: binding inhibition persists following drug contact
inhibition of binding of ACE2 to SARS-2-S [8]: inhibit binding
potency in inhibiting ACE2 binding compared to NAC [8]: stronger potency
pseudovirus cell entry, pseudovirus pre-treatment [2]: decrease the entry efficiency

CC(=O)N[C@@H](CS)C(=O)O [NAC, N-acetyl-L-cysteine]
cell entry inhibition of VSV-S, only 5 and 25 mM [7]: significant cell entry inhibition
inhibition of VSV-S cellular entry [7]: inhibited VSV-S cellular entry; also recorded: inhibited from entering
inhibition of binding of ACE2 to SARS-2-S [8]: inhibit binding

CC(C)(S)[C@@H](N)C(=O)O [Penicillamine]
pKa (thiol group) [1]: 10.5

CC(S)C(=O)NCC(=O)O (stereo not shown) [Tiopronin]
pKa (thiol group) [1]: 8.7

NCCCNCCS [WR-1065]
inhibition of binding of RBD^original to ACE2 [3]: strong inhibitory effects
binding of RBD^original to ACE2 at one and two hours post exposure and wash [3]: binding inhibition was retained for two hours
pKa (thiol group) [1]: 7.7 (WR-1065)
